Test results taken from PubChem BioAssay (NCI).
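Cultured in 96-well plates, cells were exposed to test compound for 48 hours across five concentrations. The concentration for full growth arrest is given as TGI.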

Experiments:
Experiment in all cases: inhibition of tumour cell growth, NCI panel, 48 h
[1] = tested on: A498 renal
[2] = tested on: U251 CNS
[3] = tested on: MDA-N
[4] = tested on: TK-10 renal
[5] = tested on: CAKI-1 renal
[6] = tested on: CCRF-CEM leukemia
[7] = tested on: NCI-H226 lung
[8] = tested on: K-562 leukemia
[9] = tested on: MDA-MB-435
[10] = tested on: HCC-2998 colon
[11] = tested on: MCF7 breast
[12] = tested on: KM12 colon
[13] = tested on: MALME-3M melanoma
[14] = tested on: SK-MEL-5 melanoma
[15] = tested on: HCT-15 colon
[16] = tested on: OVCAR-8 ovarian
[17] = tested on: SNB-19 CNS
[18] = tested on: COLO 205 colon
[19] = tested on: OVCAR-3 ovarian
[20] = tested on: DU-145 prostate
[21] = tested on: T-47D breast
[22] = tested on: HCT-116 colon
[23] = tested on: HT29 colon
[24] = tested on: HOP-92 NSCLC
[25] = tested on: EKVX NSCLC
[26] = tested on: NCI-H522 lung
[27] = tested on: ACHN renal
[28] = tested on: SW-620 colon
[29] = tested on: IGROV1 ovarian
[30] = tested on: MDA-MB-231 breast
[31] = tested on: SF-295 CNS
[32] = tested on: NCI/ADR-RES ovarian
[33] = tested on: PC-3 prostate
[34] = tested on: NCI-H23 lung
[35] = tested on: SF-268 CNS
[36] = tested on: SNB-75 CNS
[37] = tested on: A549 NSCLC
[38] = tested on: HL-60(TB) leukemia
[39] = tested on: UACC-257 melanoma
[40] = tested on: OVCAR-4 ovarian
[41] = tested on: SN12C renal
[42] = tested on: M14 melanoma
[43] = tested on: SF-539 CNS
[44] = tested on: 786-0 renal
[45] = tested on: UO-31 renal
[46] = tested on: SK-MEL-2 melanoma
[47] = tested on: SK-MEL-28 melanoma
[48] = tested on: HOP-62 NSCLC
[49] = tested on: MOLT-4 leukemia
[50] = tested on: RXF 393 renal
[51] = tested on: UACC-62 melanoma
[52] = tested on: NCI-H460 lung
[53] = tested on: SK-OV-3 ovarian
[54] = tested on: OVCAR-5 ovarian
[55] = tested on: LOX IMVI melanoma
[56] = tested on: RPMI-8226 leukemia
[57] = tested on: BT-549 breast
[58] = tested on: HS 578T breast
[59] = tested on: SR leukemia

CSC(=NC1CC(n2cc(C)c(=O)[nH]c2=O)OC1CO)NC#N (centres undefined)
TGI [1]: > 100 µM | TGI [2]: > 100 µM | TGI [3]: > 100 µM | TGI [4]: > 100 µM | TGI [5]: > 100 µM | TGI [6]: > 100 µM | TGI [7]: > 100 µM | TGI [8]: > 100 µM | TGI [9]: > 100 µM | TGI [10]: > 100 µM | TGI [11]: > 100 µM | TGI [12]: > 100 µM | TGI [13]: > 100 µM | TGI [14]: > 100 µM | TGI [15]: > 100 µM | TGI [16]: > 100 µM | TGI [17]: > 100 µM | TGI [18]: > 100 µM | TGI [19]: > 100 µM | TGI [20]: > 100 µM | TGI [21]: > 100 µM | TGI [22]: > 100 µM | TGI [23]: > 100 µM | TGI [24]: > 100 µM | TGI [25]: > 100 µM | TGI [26]: > 100 µM | TGI [27]: > 100 µM | TGI [28]: > 100 µM | TGI [29]: > 100 µM | TGI [30]: > 100 µM | TGI [31]: > 100 µM | TGI [32]: > 100 µM | TGI [33]: > 100 µM | TGI [34]: > 100 µM | TGI [35]: > 100 µM | TGI [36]: > 100 µM | TGI [37]: > 100 µM | TGI [38]: > 100 µM | TGI [39]: > 100 µM | TGI [40]: > 100 µM | TGI [41]: > 100 µM | TGI [42]: > 100 µM | TGI [43]: > 100 µM | TGI [44]: > 100 µM | TGI [45]: > 100 µM | TGI [46]: > 100 µM | TGI [47]: > 100 µM | TGI [48]: > 100 µM | TGI [49]: > 100 µM | TGI [50]: > 100 µM | TGI [51]: > 100 µM | TGI [52]: > 100 µM | TGI [53]: > 100 µM | TGI [54]: > 100 µM | TGI [55]: > 100 µM

Cc1nc2c(O)cccc2c(=O)[nH]1
TGI [1]: > 1000 µM | TGI [2]: > 1000 µM | TGI [3]: > 1000 µM | TGI [56]: > 1000 µM | TGI [4]: > 1000 µM | TGI [5]: > 1000 µM | TGI [6]: > 1000 µM | TGI [7]: > 1000 µM | TGI [8]: > 1000 µM | TGI [9]: > 1000 µM | TGI [10]: > 1000 µM | TGI [57]: 634 µM | TGI [11]: > 1000 µM | TGI [12]: > 1000 µM | TGI [13]: > 1000 µM | TGI [15]: > 1000 µM | TGI [16]: > 1000 µM | TGI [17]: > 1000 µM | TGI [19]: > 1000 µM | TGI [22]: > 1000 µM | TGI [23]: > 1000 µM | TGI [24]: > 1000 µM | TGI [25]: > 1000 µM | TGI [26]: > 1000 µM | TGI [27]: > 1000 µM | TGI [28]: > 1000 µM | TGI [29]: > 1000 µM | TGI [31]: > 1000 µM | TGI [32]: > 1000 µM | TGI [33]: > 1000 µM | TGI [34]: > 1000 µM | TGI [35]: > 1000 µM | TGI [36]: > 1000 µM | TGI [37]: > 1000 µM | TGI [38]: 471 µM | TGI [39]: > 1000 µM | TGI [40]: > 1000 µM | TGI [41]: > 1000 µM | TGI [42]: > 1000 µM | TGI [43]: > 1000 µM | TGI [44]: > 1000 µM | TGI [45]: > 1000 µM | TGI [46]: > 1000 µM | TGI [47]: > 1000 µM | TGI [48]: > 1000 µM | TGI [58]: > 1000 µM | TGI [49]: > 1000 µM | TGI [50]: > 1000 µM | TGI [51]: > 1000 µM | TGI [59]: > 1000 µM | TGI [52]: > 1000 µM | TGI [53]: > 1000 µM | TGI [54]: > 1000 µM | TGI [55]: > 1000 µM
